Results reported in ChEMBL document CHEMBL4507266, “Data for DCP probe BAY-784” (2021).

What was measured:
[1] = test system: Tyrosine-protein kinase ABL1 (Homo sapiens), P00519 [H396P]; details: Compound concentration 1000.0 nM
[2] = biological target: Tyrosine-protein kinase CSK (Homo sapiens) (UniProt P41240); details: Compound concentration 1000.0 nM
[3] = biological target: SRSF protein kinase 3 (Homo sapiens) (UniProt Q9UPE1); details: Compound concentration 1000.0 nM
[4] = biological target: Epithelial discoidin domain-containing receptor 1 (Homo sapiens) (UniProt Q08345); details: Compound concentration 1000.0 nM
Chain of Epithelial discoidin domain-containing receptor 1 (Homo sapiens) (Q08345 whole entry, the tested form may be a part, canonical isoform): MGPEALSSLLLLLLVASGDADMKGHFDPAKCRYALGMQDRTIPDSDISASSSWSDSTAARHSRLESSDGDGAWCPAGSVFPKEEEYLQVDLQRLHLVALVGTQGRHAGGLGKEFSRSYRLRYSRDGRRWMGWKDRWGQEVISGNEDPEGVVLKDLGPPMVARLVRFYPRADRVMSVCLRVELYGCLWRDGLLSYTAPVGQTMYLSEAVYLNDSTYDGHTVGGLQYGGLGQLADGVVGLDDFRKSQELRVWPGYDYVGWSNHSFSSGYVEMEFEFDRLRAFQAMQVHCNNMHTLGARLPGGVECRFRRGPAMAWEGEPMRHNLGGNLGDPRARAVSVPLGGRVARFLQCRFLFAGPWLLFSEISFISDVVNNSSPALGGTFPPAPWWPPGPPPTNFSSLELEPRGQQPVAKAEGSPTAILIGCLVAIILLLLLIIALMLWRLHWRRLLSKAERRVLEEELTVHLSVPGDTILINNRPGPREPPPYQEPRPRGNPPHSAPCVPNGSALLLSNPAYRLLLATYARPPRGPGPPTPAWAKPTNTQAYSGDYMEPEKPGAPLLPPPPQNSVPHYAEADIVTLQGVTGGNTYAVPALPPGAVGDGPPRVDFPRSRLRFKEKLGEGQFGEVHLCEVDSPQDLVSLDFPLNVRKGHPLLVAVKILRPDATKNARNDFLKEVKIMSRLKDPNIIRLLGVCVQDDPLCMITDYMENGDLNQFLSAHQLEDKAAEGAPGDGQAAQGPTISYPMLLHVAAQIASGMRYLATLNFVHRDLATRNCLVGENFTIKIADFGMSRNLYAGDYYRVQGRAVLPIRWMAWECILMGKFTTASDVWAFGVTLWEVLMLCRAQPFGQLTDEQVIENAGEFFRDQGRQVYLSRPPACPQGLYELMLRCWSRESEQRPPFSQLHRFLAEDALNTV

[5] = test system: Phosphatidylinositol 4,5-bisphosphate 3-kinase catalytic subunit alpha isoform (Homo sapiens), P42336 [Q546K]; details: Compound concentration 1000.0 nM
[6] = test system: Mast/stem cell growth factor receptor Kit (Homo sapiens), P10721 [A829P]; details: Compound concentration 1000.0 nM
Chain of Mast/stem cell growth factor receptor Kit (Homo sapiens), P10721 [A829P] (P10721 whole entry A829P): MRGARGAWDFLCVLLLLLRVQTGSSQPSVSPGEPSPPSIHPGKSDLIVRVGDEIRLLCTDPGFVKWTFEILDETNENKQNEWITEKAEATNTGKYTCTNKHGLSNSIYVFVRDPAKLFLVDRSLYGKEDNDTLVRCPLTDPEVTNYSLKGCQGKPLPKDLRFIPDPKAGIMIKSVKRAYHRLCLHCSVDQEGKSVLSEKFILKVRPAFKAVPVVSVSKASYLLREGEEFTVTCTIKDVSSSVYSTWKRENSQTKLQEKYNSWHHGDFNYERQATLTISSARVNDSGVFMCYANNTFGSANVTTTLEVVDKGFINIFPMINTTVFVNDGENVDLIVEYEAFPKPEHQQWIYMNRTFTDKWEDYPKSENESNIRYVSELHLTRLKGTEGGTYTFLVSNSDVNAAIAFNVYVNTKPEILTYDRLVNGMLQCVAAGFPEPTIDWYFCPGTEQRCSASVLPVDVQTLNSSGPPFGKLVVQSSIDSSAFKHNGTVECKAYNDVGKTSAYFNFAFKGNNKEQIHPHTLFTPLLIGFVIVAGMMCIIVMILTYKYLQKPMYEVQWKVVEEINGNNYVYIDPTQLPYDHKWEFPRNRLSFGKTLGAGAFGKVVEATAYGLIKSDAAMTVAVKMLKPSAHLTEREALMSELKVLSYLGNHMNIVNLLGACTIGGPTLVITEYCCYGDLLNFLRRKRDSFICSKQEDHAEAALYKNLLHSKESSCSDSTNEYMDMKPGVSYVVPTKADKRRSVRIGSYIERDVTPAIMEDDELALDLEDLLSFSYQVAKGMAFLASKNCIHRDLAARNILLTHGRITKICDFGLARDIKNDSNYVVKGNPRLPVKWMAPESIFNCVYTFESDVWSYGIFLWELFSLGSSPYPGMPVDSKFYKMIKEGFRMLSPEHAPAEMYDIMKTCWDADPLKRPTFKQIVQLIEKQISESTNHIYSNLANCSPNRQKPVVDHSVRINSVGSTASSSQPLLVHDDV

[7] = test system: Serine/threonine-protein kinase B-raf (Homo sapiens), P15056 [V600E]; details: Compound concentration 1000.0 nM
[8] = biological target: Cyclin-dependent kinase 4 (Homo sapiens) (UniProt P11802); details: Compound concentration 1000.0 nM
Chain of Cyclin-dependent kinase 4 (Homo sapiens) (P11802 whole entry, canonical isoform): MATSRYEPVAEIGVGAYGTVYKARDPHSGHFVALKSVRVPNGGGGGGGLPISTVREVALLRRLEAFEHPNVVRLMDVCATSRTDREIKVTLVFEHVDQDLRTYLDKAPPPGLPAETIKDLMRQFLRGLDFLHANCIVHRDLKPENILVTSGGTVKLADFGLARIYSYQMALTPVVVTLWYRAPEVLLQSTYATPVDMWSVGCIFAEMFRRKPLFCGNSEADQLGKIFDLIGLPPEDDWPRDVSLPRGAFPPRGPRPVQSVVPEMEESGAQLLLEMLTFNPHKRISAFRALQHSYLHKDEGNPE

[9] = biological target: Casein kinase I isoform epsilon (Homo sapiens) (UniProt P49674); details: Compound concentration 1000.0 nM
Chain of Casein kinase I isoform epsilon (Homo sapiens) (P49674 whole entry, looked up, canonical isoform): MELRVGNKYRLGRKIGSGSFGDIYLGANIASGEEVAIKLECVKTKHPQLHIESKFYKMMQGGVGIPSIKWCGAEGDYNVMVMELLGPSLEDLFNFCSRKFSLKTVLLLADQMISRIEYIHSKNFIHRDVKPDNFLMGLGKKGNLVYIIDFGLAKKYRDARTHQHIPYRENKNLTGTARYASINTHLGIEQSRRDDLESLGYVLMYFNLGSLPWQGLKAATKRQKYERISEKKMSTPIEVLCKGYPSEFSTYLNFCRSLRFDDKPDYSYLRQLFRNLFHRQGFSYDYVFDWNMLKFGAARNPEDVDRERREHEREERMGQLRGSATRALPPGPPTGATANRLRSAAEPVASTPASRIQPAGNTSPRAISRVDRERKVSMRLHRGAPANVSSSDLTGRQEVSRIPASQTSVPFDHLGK

[10] = biological target: RAF proto-oncogene serine/threonine-protein kinase (Homo sapiens) (UniProt P04049); details: Compound concentration 1000.0 nM
[11] = biological target: Proto-oncogene tyrosine-protein kinase Src (Homo sapiens) (UniProt P12931); details: Compound concentration 1000.0 nM
[12] = biological target: Activin receptor type-2B (Homo sapiens) (UniProt Q13705); details: Compound concentration 1000.0 nM
[13] = biological target: TGF-beta receptor type-2 (Homo sapiens) (UniProt P37173); details: Compound concentration 1000.0 nM
Chain of TGF-beta receptor type-2 (Homo sapiens) (P37173 whole entry): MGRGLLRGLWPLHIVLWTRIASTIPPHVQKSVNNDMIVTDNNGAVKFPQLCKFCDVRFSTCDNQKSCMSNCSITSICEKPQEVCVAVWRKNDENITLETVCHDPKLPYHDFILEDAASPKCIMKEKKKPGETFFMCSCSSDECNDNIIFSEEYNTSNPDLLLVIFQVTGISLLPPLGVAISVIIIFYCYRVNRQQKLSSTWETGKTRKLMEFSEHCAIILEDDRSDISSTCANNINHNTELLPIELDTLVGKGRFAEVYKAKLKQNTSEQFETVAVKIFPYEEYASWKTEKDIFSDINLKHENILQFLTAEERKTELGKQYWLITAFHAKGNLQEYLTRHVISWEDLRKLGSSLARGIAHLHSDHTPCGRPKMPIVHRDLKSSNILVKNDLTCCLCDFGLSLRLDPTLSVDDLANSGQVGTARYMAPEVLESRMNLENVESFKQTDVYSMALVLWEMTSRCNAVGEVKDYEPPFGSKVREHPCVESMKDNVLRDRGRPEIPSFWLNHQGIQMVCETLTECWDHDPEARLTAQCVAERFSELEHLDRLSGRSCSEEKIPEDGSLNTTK

[14] = biological target: Serine/threonine-protein kinase 32A (Homo sapiens) (UniProt Q8WU08); details: Compound concentration 1000.0 nM
Chain of Serine/threonine-protein kinase 32A (Homo sapiens) (Q8WU08 whole entry): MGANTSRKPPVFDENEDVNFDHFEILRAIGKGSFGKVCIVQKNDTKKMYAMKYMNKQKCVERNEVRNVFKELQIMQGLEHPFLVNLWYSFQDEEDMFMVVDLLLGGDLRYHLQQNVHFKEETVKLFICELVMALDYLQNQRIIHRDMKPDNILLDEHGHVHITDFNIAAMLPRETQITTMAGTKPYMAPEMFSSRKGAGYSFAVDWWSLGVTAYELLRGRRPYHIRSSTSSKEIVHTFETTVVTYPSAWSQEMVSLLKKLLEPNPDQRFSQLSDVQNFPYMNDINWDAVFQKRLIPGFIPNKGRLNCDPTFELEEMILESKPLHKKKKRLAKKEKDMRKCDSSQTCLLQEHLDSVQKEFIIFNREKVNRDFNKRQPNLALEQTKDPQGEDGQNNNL

[15] = biological target: Ephrin type-A receptor 6 (Homo sapiens) (UniProt Q9UF33); details: Compound concentration 1000.0 nM
[16] = biological target: T1, Muscarinic acetylcholine receptor M1 (Homo sapiens) (UniProt P11229); details: Compound concentration 10.0 uM
T1 sequence (whole entry): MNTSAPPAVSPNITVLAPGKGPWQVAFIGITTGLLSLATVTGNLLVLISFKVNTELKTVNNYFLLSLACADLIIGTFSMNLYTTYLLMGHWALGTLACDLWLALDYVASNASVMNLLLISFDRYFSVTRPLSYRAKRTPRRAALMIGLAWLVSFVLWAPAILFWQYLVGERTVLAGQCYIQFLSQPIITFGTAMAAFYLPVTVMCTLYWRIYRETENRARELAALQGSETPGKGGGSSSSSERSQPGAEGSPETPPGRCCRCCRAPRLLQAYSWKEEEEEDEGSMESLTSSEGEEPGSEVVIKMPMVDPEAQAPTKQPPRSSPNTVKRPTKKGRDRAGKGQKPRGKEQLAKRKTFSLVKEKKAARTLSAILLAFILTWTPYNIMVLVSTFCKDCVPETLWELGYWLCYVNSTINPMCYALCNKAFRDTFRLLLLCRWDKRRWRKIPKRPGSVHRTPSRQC

[17] = test system: Phosphatidylinositol 4,5-bisphosphate 3-kinase catalytic subunit alpha isoform (Homo sapiens), P42336 [E545A]; details: Compound concentration 1000.0 nM
Chain of Phosphatidylinositol 4,5-bisphosphate 3-kinase catalytic subunit alpha isoform (Homo sapiens), P42336 [E545A] (P42336 whole entry E545A, canonical isoform): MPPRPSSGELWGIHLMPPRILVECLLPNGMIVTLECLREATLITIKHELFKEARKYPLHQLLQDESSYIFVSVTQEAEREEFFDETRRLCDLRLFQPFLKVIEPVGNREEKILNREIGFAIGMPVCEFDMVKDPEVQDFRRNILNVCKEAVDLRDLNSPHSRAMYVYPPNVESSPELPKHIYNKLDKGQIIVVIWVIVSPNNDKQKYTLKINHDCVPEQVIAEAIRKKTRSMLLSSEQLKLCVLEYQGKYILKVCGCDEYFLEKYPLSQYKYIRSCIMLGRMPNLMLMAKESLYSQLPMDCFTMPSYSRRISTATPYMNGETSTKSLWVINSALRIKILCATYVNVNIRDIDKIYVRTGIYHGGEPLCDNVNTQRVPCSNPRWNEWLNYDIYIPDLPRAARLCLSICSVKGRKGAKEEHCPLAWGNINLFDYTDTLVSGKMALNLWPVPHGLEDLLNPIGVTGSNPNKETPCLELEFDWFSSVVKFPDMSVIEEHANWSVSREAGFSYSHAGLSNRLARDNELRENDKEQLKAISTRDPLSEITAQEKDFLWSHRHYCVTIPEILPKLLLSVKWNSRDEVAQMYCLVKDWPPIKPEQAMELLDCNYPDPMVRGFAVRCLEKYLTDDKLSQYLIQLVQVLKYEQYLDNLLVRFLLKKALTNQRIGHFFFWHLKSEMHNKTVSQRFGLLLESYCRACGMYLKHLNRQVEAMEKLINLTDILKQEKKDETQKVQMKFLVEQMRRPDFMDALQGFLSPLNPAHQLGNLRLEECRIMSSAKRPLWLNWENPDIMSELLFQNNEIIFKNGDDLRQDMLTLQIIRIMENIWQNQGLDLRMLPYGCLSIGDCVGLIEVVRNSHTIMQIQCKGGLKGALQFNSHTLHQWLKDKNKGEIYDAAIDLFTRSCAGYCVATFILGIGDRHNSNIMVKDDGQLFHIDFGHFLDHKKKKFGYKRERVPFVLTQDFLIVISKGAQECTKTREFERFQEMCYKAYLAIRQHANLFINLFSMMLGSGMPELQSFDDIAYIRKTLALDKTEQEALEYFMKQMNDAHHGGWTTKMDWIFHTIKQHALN

[18] = biological target: Cyclin-dependent kinase 4 (Homo sapiens) (UniProt P11802); details: Compound concentration 1000.0 nM; remark: listed apart in the source
[19] = biological target: TRAF2 and NCK-interacting protein kinase (Homo sapiens) (UniProt Q9UKE5); details: Compound concentration 1000.0 nM
[20] = biological target: Myosin light chain kinase family member 4 (Homo sapiens) (UniProt Q86YV6); details: Compound concentration 1000.0 nM
Chain of Myosin light chain kinase family member 4 (Homo sapiens) (Q86YV6 whole entry): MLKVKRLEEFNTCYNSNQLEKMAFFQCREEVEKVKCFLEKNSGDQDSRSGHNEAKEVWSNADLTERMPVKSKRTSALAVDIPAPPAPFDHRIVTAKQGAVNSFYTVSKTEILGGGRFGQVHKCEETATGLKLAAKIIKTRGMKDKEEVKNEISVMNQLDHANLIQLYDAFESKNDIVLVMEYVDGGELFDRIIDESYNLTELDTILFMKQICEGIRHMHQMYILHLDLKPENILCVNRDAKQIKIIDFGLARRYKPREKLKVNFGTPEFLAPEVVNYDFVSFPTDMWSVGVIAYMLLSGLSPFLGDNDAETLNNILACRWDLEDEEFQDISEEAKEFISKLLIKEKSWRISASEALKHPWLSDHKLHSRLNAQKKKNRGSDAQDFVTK

[21] = biological target: T2, 5-hydroxytryptamine receptor 3A (Homo sapiens) (UniProt P46098); details: Compound concentration 10.0 uM
T2 sequence (whole entry): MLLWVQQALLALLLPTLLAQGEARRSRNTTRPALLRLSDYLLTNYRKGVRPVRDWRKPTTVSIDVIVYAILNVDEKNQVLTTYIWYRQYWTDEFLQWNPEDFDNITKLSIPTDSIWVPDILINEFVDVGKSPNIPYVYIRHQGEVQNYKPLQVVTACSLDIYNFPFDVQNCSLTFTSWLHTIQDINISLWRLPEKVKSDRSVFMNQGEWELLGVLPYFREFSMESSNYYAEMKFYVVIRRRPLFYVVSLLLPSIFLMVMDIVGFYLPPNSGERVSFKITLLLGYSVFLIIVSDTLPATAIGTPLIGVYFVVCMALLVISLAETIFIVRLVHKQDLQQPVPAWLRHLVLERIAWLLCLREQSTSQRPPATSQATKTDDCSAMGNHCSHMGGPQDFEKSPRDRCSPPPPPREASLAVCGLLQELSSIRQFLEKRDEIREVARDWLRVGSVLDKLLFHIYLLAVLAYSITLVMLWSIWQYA

[22] = biological target: Serine/threonine-protein kinase PRP4 homolog (Homo sapiens) (UniProt Q13523); details: Compound concentration 1000.0 nM
[23] = biological target: Mitogen-activated protein kinase kinase kinase 11 (Homo sapiens) (UniProt Q16584); details: Compound concentration 1000.0 nM
[24] = biological target: Protein kinase C theta type (Homo sapiens) (UniProt Q04759); details: Compound concentration 1000.0 nM
[25] = biological target: Cyclin-dependent kinase 3 (Homo sapiens) (UniProt Q00526); details: Compound concentration 1000.0 nM
[26] = biological target: Cyclin-dependent kinase 8 (Homo sapiens) (UniProt P49336); details: Compound concentration 1000.0 nM
[27] = biological target: Muscarinic acetylcholine receptor M3 (Homo sapiens) (UniProt P20309); details: Compound concentration 10.0 uM

Structure (SMILES) | residual activity [1] [%] | residual activity [2] [%] | residual activity [3] [%] | residual activity [4] [%] | residual activity [5] [%] | residual activity [6] [%] | residual activity [7] [%] | residual activity [8] [%] | residual activity [9] [%] | residual activity [10] [%] | residual activity [11] [%] | residual activity [12] [%] | residual activity [13] [%] | residual activity [14] [%] | residual activity [15] [%] | inhibition [16] [%] | residual activity [17] [%] | residual activity [18] [%] | residual activity [19] [%] | residual activity [20] [%] | other results
O=C(NCc1ncc(C(F)(F)F)cc1Cl)c1ccc2c(c1)C1(CCS(=O)(=O)CC1)[C@H](C1CC1)N2S(=O)(=O)c1ccc(F)cc1 [BAY-784] | 80 | 97 | 100 | 100 | 76 | 92 | 84 | 93 | 100 | 100 | 98 | 90 | 100 | 100 | 100 | -2.96 | 89 | 88 | 100 | 100 | inhibition [21]: 1.44%; residual activity [22]: 100%; residual activity [23]: 100%; residual activity [24]: 100%; residual activity [25]: 100%; residual activity [26]: 80%; inhibition [27]: 18.1%
O=C(NCc1ncc(C(F)(F)F)cc1Cl)c1ccc2c(c1)C1(CCS(=O)(=O)CC1)[C@@H](C1CC1)N2S(=O)(=O)c1ccc(F)cc1 [BAY-786] | 83 | 96 | 100 | 100 | 72 | 67 | 90 | 80 | 100 | 100 | 98 | 100 | 71 | 99 | 100 | -3.7 | 90 | 88 | 71 | 95 | inhibition [21]: -1.68%; residual activity [22]: 84%; residual activity [23]: 100%; residual activity [24]: 95%; residual activity [25]: 41%; residual activity [26]: 63%; inhibition [27]: 14.4%
